Source: a melting point compilation (Tetko et al.; mined from patent text by program, amines drawn as free bases though some values may be those of a salt)

SMILES | melting point [°C]
COc1ccc(CNc2cc3c(Nc4ccc(Cl)c(Br)c4)ncnc3cn2)cc1 | 207 to 210
CN1CCN(C2Cc3cc(Cl)ccc3Sc3ccc(F)cc32)CC1 (stereo not given) | 118 to 120
C=CCc1cc2c(c(CC=C)c1O)N(CC=C)C(=O)CO2 | 71 to 73
C=CCOn1c(=O)[nH]c2cc(F)c(F)cc2c1=O | 220 to 221
CC(=O)Nc1ncc(SCC(=O)O)s1 | 210
O=S(=O)(Cc1n[nH]c(-c2ccco2)n1)c1ccccc1 | 185 to 186
COc1cc(COc2nn(-c3ccccc3)cc2/C=C/C(=O)N2CCOCC2)ccc1OCc1nc(-c2ccco2)oc1C | 180 to 181
C#CCC1(O)CCCCC1 | 53 to 54
Nc1cc(-c2ccccc2)n(-c2ccc(S(N)(=O)=O)cc2)n1 | 286 to 290
COC(=O)C(CCCCNC(=O)OCc1ccccc1)NC(=O)CCC(C)C1CCC2C3C(O)CC4CC(O)CCC4(C)C3CC(O)C12C (stereo not given) | 80 to 83
COC(=O)c1ccc2ccc(OC(=S)N(C)C)cc2c1 | 124 to 126
COc1cc(OC)nc(Oc2cccnc2C=O)n1 | 76
COC(=O)c1ccc(Cl)c(C#N)c1 | 193
Nc1sc(-c2ccc(Cl)s2)c(CN(C2CCCCC2)C2CCCCC2)c1C(=O)c1ccc(Cl)cc1 | 195 to 197
CC(C)c1cc(N)c(S(N)(=O)=O)cc1S(N)(=O)=O | 185 to 186
Cc1ccc(C(O)(Cn2ccnc2)C(C)(C)C)cc1 (stereo not given) | 135 to 137
O=C(O)CCC1(CCC(=O)O)CC(=O)c2ccc(OCCCOc3ccccc3)cc2O1 | 132 to 133
COC(=O)COc1ccccc1Oc1cc(NC(C)=O)c(F)cc1Cl | 139
CCC(C)C(CO)NC(=O)CC(O)C(CC(C)C)NC(=O)C(Cc1cccs1)NC(=O)C(Cc1cccc2ccccc12)NC(=O)OCc1ccccc1 (mixture of isomers) | 160 to 162
O=C1CCC(CSc2ccccc2)C(=O)N1CN1CCCCC1 (stereo not given) | 63 to 66
CN1CCC(OC2c3cccc(-c4ccc(F)cc4)c3CCn3cc(-c4ccccc4)nc32)CC1 (stereo not given) | 95
COc1ccc(-c2cc(=Nc3c(C)cc(C)cc3C)n(C)c(N3CC=CCC3)n2)cc1OC | 161 to 163
C=C(C)C(=O)N[C@@H](CCC(=O)O)C(=O)O | 128 to 130
CCCOc1nc2ccc(Cl)cc2c(=O)n1CCC | 64 to 66
CCCC(=O)NC1=NN(c2cccc(Cl)c2)CC1 | 168 to 169

SMILES | melting point [°C]
O=S1(=O)c2cccc3cccc(c23)N1CCCN1CCN(c2ccc(F)cc2)CC1 | 95 to 97
O=C(Nc1cccc(S(=O)(=O)N2CCCC2CO)c1)c1cnn2c(C(F)(F)F)cc(-c3ccc(Cl)cc3)nc12 (stereo not given) | 227 to 229
Cc1ncc(O)c(=O)[nH]1 | > 300
COC(=O)c1ccccc1CS(=O)(=O)NC(=S)Nc1nc(OC)cc(OC)n1 | 167 to 168
CCn1ncc(C(=O)c2ccc(S(C)(=O)=O)cc2Cl)c1O | 172 to 175
CC(=Cc1ccc(C)cc1C)c1ccc2c(c1)C(C)(C)CCC2(C)C | 54 to 56
O=C1CCC(Cc2ccc(Cl)cc2)CN1 (stereo not given) | 118 to 120
Nn1cc(C(=O)NCc2ccc(Cl)cc2)c(=O)c2cc(CCCO)ccc21 | 187 to 188
CCN(Cc1ccccc1)C(=O)Cc1c(-c2ccc(C)cc2)nc2cc(C)ccn12 | 220 to 222
COc1ccc2cnc(N)nc2c1C1CCCC1 | 181 to 183
O=C(CN1c2nc(-c3ccncc3)cc(=O)n2CCC12CC2)c1ccccc1 | 232 to 234
O=C1CCC(c2ccccc2)(c2ccccc2)[C@@H]2CN(C(=O)Cc3ccccc3)C[C@H]12 (racemic) | 173
Nc1ncnc2c1c(-c1cccc(O)c1)cn2C1CC(CN2CCCC2)C1 (stereo not given) | 193 to 194
Clc1cccc(Cl)c1C1CCN(Cc2[nH]c3ccccc3c2-c2ccccc2)CC1 | 162 to 164
CC(C)(Cl)C(CCN1C(=O)c2ccccc2C1=O)N=O (stereo not given) | 140 to 141
CCCn1ccc(-c2ccc(C(=O)N3Cc4cccn4Cc4ccccc43)cc2)n1 | 159 to 161
Cc1cc2c(C(C)(C)C)c(O)ccc2o1 | 49.9
CCN(CC)CCCC1CCCN(C(=O)N2c3ccccc3NC(=O)c3cccnc32)C1 (stereo not given) | 123 to 125
CC12CCC3c4ccc(OCc5ccccc5)cc4CCC3C1CCC2OCc1ccccc1 (stereo not given) | 74 to 78
COc1cccc(C2OCCC(C)(C)C2(O)C(C)C)c1 (stereo not given) | 56 to 56.9
COc1cccc(OC)c1C(=O)P(CC(C)C)C(=O)c1c(OC)cccc1OC | 138 to 140
CN1CC(CN2CCC(C(O)(c3ccc(F)cc3)c3ccc(F)cc3)CC2)OC1=O (stereo not given) | 147 to 148
CC(C)n1c(=O)sc2cc(N3C[C@H](C(N)=O)OC3=O)ccc21 | 183 to 184
Cc1nc(N2C(=O)CN(c3ccc(F)cc3)C2=O)sc1C(=O)NCc1ccccc1 | 217 to 219
Nc1ccc(-c2ncn(-c3ccc(OC(F)(F)F)cc3)n2)cc1 | 147

SMILES | melting point [°C]
N#Cc1cccc(C2=Nc3cc(O)c(-c4ccccc4F)cc3NC(=O)C2)c1 | > 250
COc1cc2[nH]c(N(C)Cc3cccc(C4CCN(C)CC4)c3)nc(=O)c2c(C)c1OC | 156 to 158
CN(C)C=CC(=O)c1ccc(I)cc1 | 117 to 118
O=C(NCCN1CCN(c2cccc(Cl)c2)CC1)c1nsc2ccccc12 | 115 to 117
CS(=O)(=O)c1ccc(/C=C2/C(=O)CCc3ccccc32)cc1 | 152 to 153
Cc1cccc(-c2ccc([N+](=O)[O-])cc2)c1 | 59 to 60
Clc1ccc(-c2csc(NCc3cnc(NCc4ccccc4)s3)n2)cc1 | 105 to 106
C=C1CC(COc2cccc3ccc(C)nc23)(c2ccc(Cl)cc2)OC1=O (stereo not given) | 129 to 130
COc1cc(Br)c(/C=C/c2cc(/C=C/c3ccc4cc[nH]c4c3)[nH]n2)cc1O | 137 to 142
O=C1CCN(c2ccc(CNC(=O)c3cccnc3Oc3ccc(F)cc3)cc2)CC1 | 138 to 139
O=C(CCCO)Nc1cccc(-c2cccc3cc(Cc4cccc(C(F)(F)F)c4)oc23)c1 | 134 to 135
O=Cc1c[nH]c2c1ccc1c3cc(-c4ccc(C(F)(F)F)cc4)ccc3[nH]c12 | > 250
Cc1ncc(COP(=O)(O)O)c(CN(CCN(CC(=O)O)Cc2c(COP(=O)(O)O)cnc(C)c2O)CC(=O)O)c1O | 174 to 180
Cc1noc(NS(=O)(=O)c2cccc([N+](=O)[O-])c2)c1Br | 151 to 153
COc1ccc(-c2[nH]nc3c2C(=O)c2c(NC(=O)NNC(=O)c4ccc(O)c(O)c4)cccc2-3)cc1 | > 300
CC(C)(C)OC(=O)N1CCN(c2cccc(Cl)c2C=O)CC1 | 100 to 103
COc1ccc2nccc(CCCC3CCCNC3)c2c1 (stereo not given) | 110
O=c1nc(N2CCCC(O)C2)sc2ncccc12 (stereo not given) | 208 to 211
O=C(O)CCc1sc(-c2ccccc2)nc1-c1ccc(Cl)cc1 | 142 to 143
O=C(O)c1cn(CC2CC2)c2c(F)c(F)c(F)cc2c1=O | 223 to 255
O=C(NN=Cc1c(O)ccc2cc(O)ccc12)c1cc2ccccc2cc1O | > 280
COc1ccc(C2=Cc3ccc(OCc4ccccc4)cc3OC2)cc1 | 152 to 154
CC(CC(C)(C)C)CP(=O)(O)C1OC(=O)c2ccccc21 (stereo not given) | 117 to 121
Cc1cc(C(=O)CBr)cc(C)c1O | 128 to 131
O=S1(=O)N(CCCCBr)c2ccccc2N1c1ccc(Cl)cc1 | 65 to 68

SMILES | melting point [°C]
CCCC(=O)Nc1c(C)cccc1C | 134 to 136
CC1(C)O[C@H]2CC(O)=C(O)C(=O)[C@H]2O1 | 153 to 154
CN1C2C=C(c3c[nH]c4ccc(NC(=N)c5cccs5)cc34)CC1CC2 (stereo not given) | 93 to 95
CCOC(CNc1nncs1)OCC | 108 to 112
C=Cc1ccc2c(NCc3ccc(NC(=O)C4CCN(Cc5ccccc5)CC4)cc3)nc(N(C)C)nc2c1 | 180
COc1cc(C)nc(NC(N)=S)n1 | 220
C#CCc1c(C)nc2c(OCc3c(C)cccc3NC(=S)NC(=O)c3ccccc3)cccn12 | 159 to 160
COC(=O)c1ccc2c(c1)C(=O)c1c-2n(CCCNS(=O)(=O)c2ccccc2)c(=O)c2cc(OC)c(OC)cc12 | 249 to 251
CC1SC(=O)NN=C1c1ccc2c(c1)C(=Cc1cccnc1)C(=O)N2 (stereo not given) | 285
COC(=O)CCCNC(=O)c1cc(O)ccc1O | 155 to 159
OCc1ccc(OCCF)cc1 | 37.3 to 38
COc1cc(C(=O)c2ncc3c(C(=O)N(C)C)cccn23)ccc1[N+](=O)[O-] | 176
Cc1nc2cnccc2n1-c1ccc(OCc2cccc(C(=O)Nc3nc4cc(F)ccc4s3)c2)cc1 | 244 to 246
COc1ccc(N2C(=O)N(c3ccc(OC)cc3)C(C)c3cnc(Nc4ccccc4)nc32)cc1 (stereo not given) | 228 to 234
COc1ccc(C2=NN(c3ccc(Cl)cc3)C(=O)[C@H]3CC=CC[C@@H]23)cc1OC (relative stereo) | 140 to 141
CCC(=O)c1cc(Cl)c(O)c(Cl)c1 | 50 to 52
CC(C)CCOc1cccc2c1C(=O)CC(c1nnn[nH]1)O2 (stereo not given) | 134 to 137
COc1ccc(CCNc2nc(Cl)c3nc(-c4ccco4)oc3n2)cc1 | 170 to 171
c1cc2[nH]ncc2cc1NC1CC2CCC(C1)N2 (stereo not given) | 236 to 238
CC(C)(C#N)c1c(Cl)cc(N)cc1Cl | 208
CC1=C(Cl)C(c2ccccc2)C([N+](=O)[O-])=C(C)N1 (stereo not given) | 192
O=C(CC1CCN(Cc2ccccc2)CC1)Nc1noc(C2CN3CCC2CC3)n1 (stereo not given) | 133 to 134
Cc1cc(-c2ccccc2)nc2nc(SCc3ccccc3)nn12 | 154 to 155
C=CCN(C)C(=O)Nc1cc(C(C)(C)C)on1 | 90 to 91
COc1cc(NC(=O)OC(C)CN2CCC(c3nn(C)c4cc(F)ccc34)CC2)cc(OC)c1OC (stereo not given) | 74 to 77
